These are literature values, as cited in US20090312311A1, “COMBINATION OF ORGANIC COMPOUNDS” (priority 2006, published 2009).

Data set [1] relates to cardiac hypertrophy. The note with it: transgenic mice that overexpress Hop; Kook et al. 2003.
Data set [2] has as its system hypertrophy induced by infusion of isoproterenol.

The structures appear in SMILES notation.

For the molecule `CC(/C=C/C(=O)NO)=C\[C@@H](C)C(=O)c1ccc(N(C)C)cc1` [trichostatin A], in data set [1], the “effect on cardiac hypertrophy” value was “prevents cardiac hypertrophy”. In data set [2], the effect on hypertrophy entry is reported as “attenuates hypertrophy”.
